We go through two compounds from patent US20070060638A1, “Methods and therapies for potentiating therapeutic activities of a cannabinoid receptor agonist via administration of a cannabinoid receptor antagonist” (priority 2005, published 2007).

Experiment [1] relates to Male Long-Evans rats (tail flick, thermal nociception). Put plainly: Rat tail flick test, single intravenous injection. It is filed as in vivo. As to conditions: for tail flick latency (MPE) compared with same dose of WIN alone: i.v. single injection. The protocol:
(§1) Male Long-Evans rats (N=175) from Charles River (Montreal, QC, Canada) ranging from 230-380 grams, were housed in polycarbonate cages in pairs and given free access to food (Lab Diet, PMI Nutrition International, Inc., Brentwood, Mo., USA) and water. Animal quarters were kept on a reverse light-dark cycle (lights on from 7 pm to 7 am) and maintained at 22±2° C. and 45±20% relative humidity. Animals were given a minimum of 3 days prior to the experiment to acclimatize to the animal quarters.
(§2) All injections were administered in a volume of 1 ml/kg. All chemicals were dissolved in 5% dimethyl sulfoxide (DMSO; Sigma, Oakville, ON, Canada), 0.3% polyoxyethylenesorbitan monooleate (Tween® 80; Sigma, Oakville, ON, Canada) and 94.7% saline vehicle, and administered intravenously in the posterior ⅓ of the lateral tail vein.
For single injection testing, vehicle alone was used as a control injection (n=8).
(§3) The tail flick apparatus consisted of a projection lamp that creates radiant heat located just below the animal-testing surface (D'Amour, E. E. and Smith, D. L. J. Pharmacol. Exp. Ther. 1941 72:74-79). The light from the lamp projected through a small hole in the testing surface and was aimed at a photocell located 25 cm above the testing surface. A digital timer, connected to the apparatus, started when the heat source was activated. When the animal flicked its tail away from the heat source, the light from the projection lamp activated the photocell, simultaneously stopping the timer and turning off the lamp. The heat intensity was calibrated to result in baseline tail flick latencies of 2-3 seconds and a 10 second cutoff was used to minimize tissue damage.
Nociceptive reflexes to a thermal stimulus were tested using the tail flick analgesia meter. This apparatus focuses a hot beam on the animal's tail. The time it takes for the rat to flick its tail away from the heat source is a measure of pain; the longer the animal leaves its tail on the hotspot, the greater the degree of pain relief. On the day prior to tail flick testing, animals were handled on the tail flick apparatus for 5-10 minutes to reduce stress-induced analgesia (Kelly, S. J. and Franklin, K. B., Neuropharmacology 1985 24:1019-1025; Terman et al., Science 1984 226:1270-1277). For single injection tested groups, animals were restrained in a small towel and a baseline tail flick latency was measured. Following the baseline measure, animals were given a drug injection and tail flick latencies were assessed every 10 minutes for 90 minutes. For the repeated injection groups, animals were given one drug injection every day for seven days. Prior to the first injection, a baseline tail flick latency was measured. Following this measure, animals were given a drug injection and tail flick latencies were assessed 10 minutes post-injection. […] Post injection tail flick latencies were assessed on days 1, 3, 5, and 7. For all animals, tail flick latencies were converted into a percent of maximal possible effect (MPE) using the equation: MPE=[(post-injection latency−baseline latency)/(10 s cutoff−baseline latency)]×100
(§4) Separate two-way repeated measure ANOVAs were performed on the single injection groups, and repeated injection groups (see Example 2). Post-injection time (10-90 minutes for single injection groups) or day of injection (1-7 days for the repeated injection groups) were the within-subjects factors and drug group was the between-subjects factor. Whenever there were violations of sphericity, Huynh-Feldt corrections to the within-group degrees of freedom were reported. Because many drug group comparisons were irrelevant, a priori multiple comparisons were used to analyze the main drug effect using the Dunn's critical t-ratio. A corrected α of 0.005 was used for the single injection groups because there were 8 comparisons, and a corrected α of 0.01 was used for the repeated injection groups because there were 4 comparisons.
In general terms: In hot-plate and tail-flick tests a longer latency is read as antinociception.

The test system is the same in experiment [2]. Put plainly: Rat tail flick test, repeated daily injections for 7 days (tolerance). The class given is in vivo. Particulars: for tail flick latency thresholds compared with WIN alone: i.v. daily for 7 days. The method, then: as §1, §2
For repeated injection testing, vehicle alone was used as a control injection (n=8). […] The control group received 1.1 ng/kg ultra-low dose of SR alone.
as §3
Nociceptive reflexes to a thermal stimulus were tested using the tail flick analgesia meter. This apparatus focuses a hot beam on the animal's tail. The time it takes for the rat to flick its tail away from the heat source is a measure of pain; the longer the animal leaves its tail on the hotspot, the greater the degree of pain relief. On the day prior to tail flick testing, animals were handled on the tail flick apparatus for 5-10 minutes to reduce stress-induced analgesia (Kelly, S. J. and Franklin, K. B., Neuropharmacology 1985 24:1019-1025; Terman et al., Science 1984 226:1270-1277). For single injection tested groups, animals were restrained in a small towel and a baseline tail flick latency was measured. Following the baseline measure, animals were given a drug injection and tail flick latencies were assessed every 10 minutes for 90 minutes. For the repeated injection groups, animals were given one drug injection every day for seven days. Prior to the first injection, a baseline tail flick latency was measured. Following this measure, animals were given a drug injection and tail flick latencies were assessed 10 minutes post-injection. This time point was selected because it is the point at which maximal WIN-induced antinociception is detected in this protocol. Post injection tail flick latencies were assessed on days 1, 3, 5, and 7. For all animals, tail flick latencies were converted into a percent of maximal possible effect (MPE) using the equation: MPE=[(post-injection latency−baseline latency)/(10 s cutoff−baseline latency)]×100
as §4, with “A corrected α of 0.005 was used for the single injection groups because there were 8 comparisons, and a corrected α of 0.01 was used for the repeated injection groups because there were 4 comparisons.” left out

With `Cc1c(C(=O)NN2CCCCC2)nn(-c2ccc(Cl)cc2Cl)c1-c1ccc(Cl)cc1` [SR, N-(Piperidin-1-yl)-5-(4-chlorophenyl)-1-(2,4-dichlorophenyl)-4-methyl-1H-pyrazole-3-carboxamide], the “tail flick latency (MPE) compared with same dose of WIN alone” value in experiment [1] (SR 0.055 ng/kg mixed with WIN 0.0625 mg/kg, t(14)=3.28) is given as “no difference”; in experiment [1] (SR 0.083 ng/kg with WIN 0.09375 mg/kg, t(14)=8.16, P≦0.005), “longer tail flick latencies”; in experiment [1] (SR 0.55 ng/kg in combination with WIN 0.0625 mg/kg, t(14)=6.72, P≦0.005), “longer tail flick latencies”; in experiment [1] (SR 0.83 ng/kg with WIN 0.09375 mg/kg, t(14)=9.63, P≦0.005) it was “longer tail flick latencies”. In experiment [1] (ultra-low dose SR (0.55, 0.055, 0.83, 0.083 ng/kg) with WIN (0.0625 or 0.09375 mg/kg), single i.v. injection), the “antinociceptive properties of WIN in rat tail flick test (FIG. 1A, 1B)” value is “enhanced”. The “tail flick latency thresholds compared with WIN alone” value was “greater tail flick latency thresholds” in experiment [2] (SR 0.11 ng/kg with WIN 0.125 mg/kg, t(14)=14.35, P≦0.01) and “greater tail flick latency thresholds” in experiment [2] (SR 1.1 ng/kg with WIN 0.125 mg/kg, t(14)=9.77, P≦0.01). Besides, the “prevention of WIN-induced tolerance / enhancement of antinociception” value is given as “effective” in experiment [2] (SR to WIN dose ratio 1:100,000) and “effective” in experiment [2] (SR to WIN dose ratio 1:1,000,000, slightly (although not significant) better at preventing tolerance). In addition, the “development of tolerance to the analgesic action of WIN in rat tail flick test (FIG. 2)” value in experiment [2] (daily ultra-low dose SR (1.1 or 0.11 ng/kg) with WIN 0.125 mg/kg, i.v.) is “prevented the development of tolerance”.

As to `CS(=O)(=O)O.Cc1c(C(=O)c2cccc3ccccc23)c2cccc3c2n1[C@H](CN1CCOCC1)CO3` [WIN, (R)-(+)-[2,3-Dihydro-5-methyl-3-(4-morpholinylmethyl)pyrrolo[1,2,3-de]-1,4-benzoxazin-6-yl]-1-naphthalenylmethanone mesylate], in experiment [1] (rat, in vivo), the “degree of antinociception in the tail flick test” value is on record as “sub-maximal antinociception” and the “tail flick latency (MPE) compared with vehicle” value is reported as “no difference”. Moreover, the “tail flick latency compared with vehicle” value in experiment [2] (WIN 0.125 mg/kg i.v. alone, daily for 7 days, tested days 1, 3, 5, 7, t(14)=10.44, P≦0.01) was “greater tail flick latencies”. In experiment [2] (WIN alone at 0.125 mg/kg i.v.), the “degree of antinociception in the tail flick test” value is on record as “maximal antinociception”. The “time point post-injection of maximal WIN-induced antinociception” value in experiment [2] (tail flick, i.v.) is 10 min.
